Publication PMC8978638 (RSC Advances, 2021)

Assays:
[1] = DPPH free radical scavenging; details: % scavenging of DPPH at 1 μg μL^−1 concentration
human BChE = human BChE (Homo sapiens, UniProt P06276); assay: Enzyme inhibition assay; format: biochemical
human AChE = human AChE (Homo sapiens, UniProt P22303); assay: Enzyme inhibition assay; format: biochemical
Sequence of human AChE (P22303 32-614): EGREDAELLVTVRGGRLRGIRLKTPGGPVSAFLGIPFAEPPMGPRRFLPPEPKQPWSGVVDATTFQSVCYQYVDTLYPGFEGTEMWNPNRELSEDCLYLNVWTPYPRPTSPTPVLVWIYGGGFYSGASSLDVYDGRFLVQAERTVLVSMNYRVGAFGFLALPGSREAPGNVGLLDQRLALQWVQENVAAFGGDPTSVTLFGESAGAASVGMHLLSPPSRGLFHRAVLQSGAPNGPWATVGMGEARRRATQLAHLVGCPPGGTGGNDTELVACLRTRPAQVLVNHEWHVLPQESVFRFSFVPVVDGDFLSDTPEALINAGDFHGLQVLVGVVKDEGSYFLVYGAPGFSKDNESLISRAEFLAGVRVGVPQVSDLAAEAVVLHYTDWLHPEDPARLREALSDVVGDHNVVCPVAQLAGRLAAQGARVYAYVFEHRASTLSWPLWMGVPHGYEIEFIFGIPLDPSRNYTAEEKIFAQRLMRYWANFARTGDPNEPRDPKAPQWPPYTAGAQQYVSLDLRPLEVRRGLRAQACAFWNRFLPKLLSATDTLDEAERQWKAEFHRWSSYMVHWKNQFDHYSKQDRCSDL

Sequence of human BChE (P06276 29-602): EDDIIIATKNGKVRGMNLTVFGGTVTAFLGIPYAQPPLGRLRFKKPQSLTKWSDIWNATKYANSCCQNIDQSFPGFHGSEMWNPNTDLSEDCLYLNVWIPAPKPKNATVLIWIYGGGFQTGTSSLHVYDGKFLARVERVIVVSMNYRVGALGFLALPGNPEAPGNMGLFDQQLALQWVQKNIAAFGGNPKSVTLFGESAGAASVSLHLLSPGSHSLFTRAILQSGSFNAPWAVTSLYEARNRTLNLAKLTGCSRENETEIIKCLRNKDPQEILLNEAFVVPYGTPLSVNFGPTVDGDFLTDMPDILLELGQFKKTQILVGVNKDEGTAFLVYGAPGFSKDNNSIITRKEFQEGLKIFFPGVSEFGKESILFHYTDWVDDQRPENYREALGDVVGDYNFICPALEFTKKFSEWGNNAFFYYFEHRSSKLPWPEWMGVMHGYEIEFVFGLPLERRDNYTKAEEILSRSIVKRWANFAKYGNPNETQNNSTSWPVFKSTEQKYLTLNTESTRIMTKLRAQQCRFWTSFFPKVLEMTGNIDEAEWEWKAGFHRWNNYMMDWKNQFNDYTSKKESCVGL

Compound: O=C(Nc1ccccc1C(=O)N/N=C/c1ccc(Cl)cc1)c1ccccc1 [Compound 05, (E)-N-(2-(2-(4-Chlorobenzylidene)hydrazinecarbonyl)phenyl) benzamide]
- Scavenging (%) [1]: 35.37%
- IC50 (human BChE): 1240 ± 120 nM
- IC50 (human AChE): 1030 ± 120 nM

Compound: O=C(Nc1ccccc1C(=O)N/N=C/c1ccccc1)c1ccccc1 [Compound 13, (E)-N-(2-(2-Benzylidenehydrazinecarbonyl)phenyl)benzamide]
- Scavenging (%) [1]: 30.21%
- IC50 (human BChE): 100 ± 60 nM
- IC50 (human AChE): 110 ± 30 nM

Compound: O=C(Nc1ccccc1C(=O)N/N=C/c1ccc(Br)cc1)c1ccccc1 [Compound 06, (E)-N-(2-(2-(4-Bromobenzylidene)hydrazinecarbonyl)phenyl)benzamide]
- Scavenging (%) [1]: 15.88%
- IC50 (human BChE): 140 ± 50 nM
- IC50 (human AChE): 90 ± 50 nM

Compound: O=C(Nc1ccccc1C(=O)N/N=C/c1ccc(O)cc1O)c1ccccc1 [Compound 10, (E)-N-(2-(2-(2,4-Dihydroxybenzylidene)hydrazinecarbonyl)phenyl)benzamide]
- Scavenging (%) [1]: 82.55%
- IC50 (human BChE): 2150 ± 260 nM
- IC50 (human AChE): 18500 ± 190 nM

Compound: O=C1O[C@H]([C@@H](O)CO)C(O)=C1O [Ascorbic acid, ascorbic acid, reference compound]
- Scavenging (%) [1]: 96.39%

Compound: CC(C)c1ccc(/C=N/NC(=O)c2ccccc2NC(=O)c2ccccc2)cc1 [Compound 09, (E)-N-(2-(2-(4-Isopropylbenzylidene)hydrazinecarbonyl)phenyl)benzamide]
- Scavenging (%) [1]: 33.73%
- IC50 (human AChE): 23100 ± 250 nM

Compound: O=C(Nc1ccccc1C(=O)N/N=C/c1ccccc1O)c1ccccc1 [Compound 11, (E)-N-(2-(2-(2-Hydroxybenzylidene)hydrazinecarbonyl)phenyl)benzamide]
- Scavenging (%) [1]: 67.54%
- IC50 (human BChE): 120 ± 90 nM
- IC50 (human AChE): 1140 ± 350 nM

Compound: COC(=O)c1ccccc1NC(=O)c1ccccc1 [Compound 03, methyl-2-benzamidobenzoate]
- Scavenging (%) [1]: 37.17%
- IC50 (human BChE): 210 ± 60 nM
- IC50 (human AChE): 250 ± 60 nM

Compound: COc1ccc(/C=N/NC(=O)c2ccccc2NC(=O)c2ccccc2)cc1 [Compound 12, (E)-N-(2-(2-(4-Methoxybenzylidene)hydrazinecarbonyl)phenyl)benzamide]
- Scavenging (%) [1]: 30.09%
- IC50 (human BChE): 18340 ± 140 nM
- IC50 (human AChE): 20400 ± 230 nM

Compound: O=C(Nc1ccccc1C(=O)N/N=C/c1ccc([N+](=O)[O-])cc1)c1ccccc1 [Compound 08, (E)-N-(2-(2-(4-Nitrobenzylidene)hydrazinecarbonyl)phenyl)benzamide]
- Scavenging (%) [1]: 20.20%
- IC50 (human BChE): 190 ± 120 nM
- IC50 (human AChE): 14800 ± 290 nM

Compound: NNC(=O)c1ccccc1NC(=O)c1ccccc1 [Compound 04, N-(2-(hydrazinecarbonyl)phenyl)benzamide]
- Scavenging (%) [1]: 95.06%
- Scavenging (%) ([1]; listed as 4): 95.07%
- IC50 (human BChE): 170 ± 120 nM
- IC50 (human AChE): 27650 ± 140 nM

Compound: CN(C)c1ccc(/C=N/NC(=O)c2ccccc2NC(=O)c2ccccc2)cc1 [Compound 07, (E)-N-(2-(2-(4-(Dimethylamino)benzylidene)hydrazinecarbonyl)phenyl)benzamide]
- Scavenging (%) [1]: 43.97%
- IC50 (human AChE): 25200 ± 210 nM
